{"source": "patent US8722052B2", "about": "“Vaccinia virus protein A46 peptide and use thereof” (priority 2008, dated 2014)", "note": "Several values for one entry are separate records, joined by “and”; a condition that tells them apart may be missing. Equal entries are not always repeated. Square brackets hold non-standard residues; d marks the D form. Ends that are not written are not given here.", "data": [{"tested_on": "TLR4", "sequence (O00206 24-839)": "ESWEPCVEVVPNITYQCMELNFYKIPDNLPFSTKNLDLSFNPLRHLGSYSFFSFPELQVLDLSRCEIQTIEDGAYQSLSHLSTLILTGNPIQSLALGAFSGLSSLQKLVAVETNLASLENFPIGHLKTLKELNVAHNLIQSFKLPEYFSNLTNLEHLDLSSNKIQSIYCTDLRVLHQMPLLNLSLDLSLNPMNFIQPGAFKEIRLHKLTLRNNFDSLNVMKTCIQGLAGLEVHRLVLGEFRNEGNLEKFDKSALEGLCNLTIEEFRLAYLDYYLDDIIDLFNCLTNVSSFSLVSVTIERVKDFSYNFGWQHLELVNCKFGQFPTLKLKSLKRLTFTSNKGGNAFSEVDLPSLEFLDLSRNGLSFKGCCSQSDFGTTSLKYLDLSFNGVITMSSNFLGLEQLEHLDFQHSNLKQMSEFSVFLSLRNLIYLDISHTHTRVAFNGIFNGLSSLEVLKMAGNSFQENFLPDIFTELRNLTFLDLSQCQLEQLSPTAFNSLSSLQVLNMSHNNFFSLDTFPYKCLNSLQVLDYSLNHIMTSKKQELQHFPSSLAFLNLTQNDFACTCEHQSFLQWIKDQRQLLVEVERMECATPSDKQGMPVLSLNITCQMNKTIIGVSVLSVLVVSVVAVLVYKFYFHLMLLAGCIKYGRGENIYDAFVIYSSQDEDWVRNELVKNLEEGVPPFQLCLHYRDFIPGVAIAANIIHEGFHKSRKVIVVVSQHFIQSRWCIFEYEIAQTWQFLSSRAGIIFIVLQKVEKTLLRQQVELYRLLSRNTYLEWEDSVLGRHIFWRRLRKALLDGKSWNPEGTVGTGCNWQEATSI", "sequence (Q9Y6Y9 17-160 partner limits assumed)": "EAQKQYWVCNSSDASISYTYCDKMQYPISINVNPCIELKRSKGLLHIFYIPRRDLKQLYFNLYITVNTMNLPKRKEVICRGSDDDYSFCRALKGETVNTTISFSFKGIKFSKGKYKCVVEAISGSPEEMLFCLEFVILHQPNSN", "experiment": "LPS-induced TNFα in primary human PBMC, ELISA", "format": "cell-based", "conditions": "peptide 1, 5 or 25 μM 1 h before 10 ng/ml LPS, 6 h", "description": "FIGS. 13A and B are bar charts showing the effect of A467 and A464 on LPS-induced TNFα production and on cell viability in primary human cells. Peripheral blood mononuclear cells (PBMCs) were seeded in 96 well plates (1 ×10^6 cells/ml) 24 hours before treatment. A467 (SEQ ID NO. 23) and A464 (SEQ ID NO. 20) were added to the cells at 1, 5 and 25 μM 1 hour before stimulating with 10 ng/ml LPS. The peptides were added into the unstimulated control wells at 25 μM. Supernatants were collected 6 hours after stimulation and assayed for TNFα production by ELISA (A). The cells were assayed for viability by the MTT assay (B). No peptides were added to the control wells (black bars). Data is representative of at least three experiments each performed in triplicate and is expressed as mean±s.d;\nFIGS. 14A and B are bar charts showing the comparison of the inhibitory effect of the L- and D-forms of A464 on LPS-induced TNFα in primary human and murine cells. PBMC (1×10^6 cells/ml, (A)) or immortalised murine macrophages (1.5×10^5 cells/ml, (B)) were seeded in 96 well plates 24 hours before treatment. L-form and D-form A464 peptides (with the 9R delivery peptide on the C-terminus, SEQ ID NO. 20) were added to the cells at a concentration of 1, 5 or 25 μM 1 hour before stimulating with 10 ng/ml LPS. Supernatants were collected 6 hours after stimulation and assayed for either human (A) or murine (B) TNFα production by ELISA. No peptides were added to the control wells (black bars). Data is representative of at least three experiments each performed in triplicate and is expressed as mean±s.d;\nFIGS. 15A and B are bar charts showing the effect of the D-form A464 peptide with the TAT delivery sequence on LPS induced TNFα in primary human and murine cells. PBMC (A) and immortalised murine macrophages (B) were seeded in 96 well plates 24 hours before treatment. D-form of A467 (SEQ ID NO. 37) and A464 (SEQ ID NO. 36) with the TAT delivery sequence were added to the cells at a concentration of 1, 5 or 25 μM 1 hour before stimulating with 10 ng/ml LPS. The peptides were added into the unstimulated control wells at 25 μM. Supernatants were collected 6 hours after stimulation and assayed for either human (A) or murine (B) TNFα production by ELISA. No peptides were added to the control wells (black bars). Data is representative of at least three experiments each performed in triplicate and is expressed as mean±s.d;\nFIGS. 16A and B are bar charts showing the effect of attaching 9R to the N-terminus of A464 on LPS-induced TNFα in primary human and murine cells. Immortalised murine macrophages (A) and PBMC (B) were seeded in 96 well plates 24 hours before treatment. L-form of A467 (SEQ ID NO. 39) and A464 (SEQ ID NO. 38) with the 9R-delivery sequence at the N-terminus were added to the cells at a concentration of 1, 5 or 25 μM 1 hour before stimulating with 10 ng/ml LPS. The peptides were added into the unstimulated control wells at […]. Supernatants were collected 6 hours after stimulation and assayed for either murine (A) or human (B) TNFα production by ELISA. No peptides were added to the control wells (black bars). Data is representative of at least three experiments each performed in triplicate and is expressed as mean±s.d;\nFIGS. 17A and B are bar charts showing the effect of the D-form A464 with 9R at the N-terminus on LPS-induced TNFα in primary human and murine cells. Immortalised murine macrophages (A) and PBMC (B) were seeded in 96 well plates 24 hours before treatment. D-form of A467 (SEQ ID NO. 39) and A464 (SEQ ID NO. 38) peptides with the 9R-delivery sequence at N-terminus were added to the cells at a concentration of 1, 5 or 25 μM 1 hour before stimulating with 10 ng/ml LPS. The peptides were added into the unstimulated control wells at 25 μM. Supernatants were collected 6 hours after stimulation and assayed for either murine (A) or human (B) TNFα production by ELISA. No peptides were added to the control wells (black bars). […]", "values": [{"substance": "9RN-A464 (RRRRRRRRRKYSFKLILAEY) [Peptide 9RN-A464]", "inhibition of LPS-induced hTNFα production": "inhibition was only observed from 5-25 μM"}, {"substance": "D-9RN-A464 ([dR][dR][dR][dR][dR][dR][dR][dR][dR][dK][dY][dS][dF][dK][dL][dI][dL][dA][dE][dY]) [Peptide D-9RN-A464]", "inhibition of LPS-induced hTNFα production": "inhibited TNFα only at concentration of 24 μM"}, {"substance": "KYSFKLILAEYRRRRRRRRR [Peptide A464]", "inhibition of LPS-induced hTNFα production": "significant inhibition of TLR4 by A464 (SEQ ID No. 20) at 1 μM and 5 μM A464 (SEQ ID No. 20) peptide almost completely blocked hTNFα production"}]}]}
